In patent US10676468B2, “N-(3-heteroarylaryl)-4-arylarylcarboxamides and analogs as hedgehog pathway inhibitors and use thereof” (IMPACT Therapeutics, Inc., priority 2012, dated 2020):
Counter-ions that a name gives are not always drawn.

How the values were obtained:
Type in all cases: cell-based, mouse
[1] = system: Hedgehog Signaling Pathway; experiment: Gli-Luc reporter gene cell assay in C3H10T1/2/Gli-Luc cells stimulated with Shh; conditions: 30 nM Shh, luciferase activity (RLU), read-out: IC50 values of compounds that inhibit Hh pathway
Procedure, shortened: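 C3H10T1/2 cells stably carrying Gli-responsive luciferase were seeded overnight, then treated 24 h at 37 °C with compound (7-point dilution series, DMSO control) plus Shh (30 nM in added medium). Lysate luciferase RLU fitted against log concentration to derive IC50.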

[2] = system: Hedgehog Signaling Pathway; experiment: SAG-induced differentiation of C3H10T1/2 cells into osteoblastic cells, intracellular alkaline phosphatase activity; conditions: 1 μM SAG, 5 days, alkaline phosphatase activity (OD405), read-out: IC50 values of compounds that inhibit Hh pathway
Procedure, shortened: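 Mouse C3H10T1/2 cells were induced with SAG and exposed to compound (10 μM to 1 nM) for 5 days at 37 °C. Cells were lysed in 0.2% Triton, and alkaline phosphatase activity was read as OD405 over 30 min at 37 °C in pH 9.8 substrate buffer. IC50 came from a non-linear fit of background-subtracted OD405 against log concentration.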

[3] = system: Hedgehog Signaling Pathway; experiment: SHH-induced differentiation of C3H10T1/2 cells into osteoblastic cells, intracellular alkaline phosphatase activity; conditions: 10 nM SHH-N, 5 days, alkaline phosphatase activity (OD405), read-out: IC50 values of compounds that inhibit Hh pathway
Procedure, shortened: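 Mouse C3H10T1/2 cells were induced with 10 nM SHH-N alongside test compound (10 μM–10 nM) for 5 days at 37 °C. Cells were lysed in 0.2% Triton, and alkaline phosphatase activity was read at OD405 over 30 min at 37 °C with the background reading subtracted. IC50 came from a nonlinear fit against log concentration.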

[4] = Mus musculus, C3H 10T1/2, 120 h

With Cc1nc(N2C[C@@H](C)O[C@@H](C)C2)ccc1C(=O)Nc1ccc(Cl)c(-c2nc3ccccc3[nH]2)c1 [Example 38, N-(3-(1H-benzo[d]imidazol-2-yl)-4-chlorophenyl)-2-methyl-6-((2S,6R)-2,6-dimethylmorpholino)nicotinamide] as the compound, how does the IC50 ([1]; Mus musculus, C3H 10T1/2, 24 h) read?
The IC50 was 8.4 nM.

What about the IC50 [2, 4] of the same compound?
Its IC50 is 28 nM.

And the IC50 [3, 4]?
The IC50 was 4.9 nM.

Which results are given for C[C@@H]1CN(c2ccc(C(=O)Nc3ccc(Cl)c(-c4nc5ccc(F)cc5[nH]4)c3)c(Cl)c2)C[C@H](C)N1C [Example 99, N-(3-(6-fluoro-1H-benzo[d]imidazol-2-yl)-4-chlorophenyl)-2-chloro-4-((3S,5R)-3,4,5-trimethylpiperazin-1-yl)benzamide]?
IC50 ([1]; Mus musculus, C3H 10T1/2, 24 h): 1.6 nM; IC50 [2, 4]: 81 nM; IC50 [3]: 2.6 nM

How did the IC50 ([1]; Mus musculus, C3H 10T1/2, 24 h) turn out when Cc1ccc(NC(=O)c2ccc(N3C[C@@H](C)N(C)[C@@H](C)C3)cc2Cl)cc1-c1nc2ccc(F)cc2[nH]1 [Example 115, N-(3-(6-fluoro-1H-benzo[d]imidazol-2-yl)-4-methylphenyl)-2-chloro-4-((3S,5R)-3,4,5-trimethylpiperazin-1-yl)benzamide] was run?
Its IC50 is 3.4 nM.

What about the IC50 [2, 4] of the same compound?
Its IC50 is 145 nM.

And the IC50 [3, 4]?
Its IC50 is 31 nM.

How did the IC50 ([1]; Mus musculus, C3H 10T1/2, 24 h) turn out when Cc1cc(N2C[C@@H](C)O[C@@H](C)C2)ccc1C(=O)Nc1ccc(Cl)c(-c2nc3ccccc3[nH]2)c1 [Example 32, N-(3-(1H-benzo[d]imidazol-2-yl)-4-chlorophenyl)-2-methyl-4-((2S,6R)-2,6-dimethylmorpholino)benzamide] was run?
Its IC50 is 7.2 nM.

And the IC50 [2, 4]?
Its IC50 is 53 nM.

What about the IC50 [3, 4] of the same compound?
Its IC50 is 7.9 nM.

How did the IC50 ([1]; Mus musculus, C3H 10T1/2, 24 h) turn out when Cc1cc(-c2ccc([N+](=O)[O-])cc2)ccc1C(=O)Nc1ccc(Cl)c(-c2nc3ccccc3[nH]2)c1 [Example 7, N-(3-(1H-benzo[d]imidazol-2-yl)-4-chlorophenyl)-3-methyl-4′-nitrobiphenyl-4-carboxamide] was run?
Its IC50 is 4.6 nM.

What about the IC50 [2, 4] of the same compound?
Its IC50 is 25 nM.

And the IC50 [3, 4]?
The IC50 was 3.5 nM.

For Cc1c(C(=O)Nc2ccc(Cl)c(-c3ncc(-c4cccs4)[nH]3)c2)ccc(N2C[C@@H](C)N(C)[C@@H](C)C2)c1F [Example 156, N-(3-(5-(thiophen-2-yl)-1H-imidazol-2-yl)-4-chlorophenyl)-2-methyl-3-fluoro-4-((3S,5R)-3,4,5-trimethylpiperazin-1-yl)benzamide], which IC50 ([1]; Mus musculus, C3H 10T1/2, 24 h) is on record?
The IC50 was 0.21 nM.

What about the IC50 [2, 4] of the same compound?
Its IC50 is 7 nM.

And the IC50 [3, 4]?
The IC50 was 0.2 nM.

With COc1ncc(-c2ccc(C(=O)Nc3ccc(Cl)c(-c4nc5ccccc5[nH]4)c3)c(C)c2)cn1 [Example 39, N-(3-(1H-benzo[d]imidazol-2-yl)-4-chlorophenyl)-2-methyl-4-(2-methoxypyrimidin-5-yl)benzamide] as the compound, how does the IC50 ([1]; Mus musculus, C3H 10T1/2, 24 h) read?
Its IC50 is 8.2 nM.

What about the IC50 [2, 4] of the same compound?
The IC50 was 40 nM.

What about the IC50 [3, 4] of the same compound?
Its IC50 is 15 nM.

For C[C@@H]1CN(c2ccc(C(=O)Nc3ccc(Cl)c(-c4nc5ccncc5[nH]4)c3)c(Cl)c2)C[C@H](C)N1C [Example 196, N-(3-(3H-imidazo[4,5-c]pyridin-2-yl)-4-chlorophenyl)-2-chloro-4-((3S,5R)-3,4,5-trimethylpiperazin-1-yl)benzamide], which IC50 ([1]; Mus musculus, C3H 10T1/2, 24 h) is on record?
Its IC50 is 5.7 nM.

And the IC50 [2, 4]?
Its IC50 is 157 nM.

And the IC50 [3, 4]?
The IC50 was 54 nM.

Which results are given for CN1CCN(c2ccc(C(=O)Nc3ccc(Cl)c(-c4nc5ccccc5[nH]4)c3)cn2)CC1 [Example 103, N-(3-(1H-benzo[d]imidazol-2-yl)-4-chlorophenyl)-6-(4-methylpiperazin-1-yl)nicotinamide]?
IC50 ([1]; Mus musculus, C3H 10T1/2, 24 h): 9.4 nM; IC50 [2, 4]: 449 nM; IC50 [3, 4]: 40 nM

For “N-(3-(5-(furan-2-yl)-1H-imidazol-2-yl)-4-chlorophenyl)-2-cyano-4-((3S,5R)-3,4,5-trimethylpiperazin-1-yl)benzamide [Example 147]”, which IC50 ([1]; 24 hours) is on record?
Its IC50 is greater than 10000 nM.

What about the IC50 [2] of the same compound?
The IC50 was greater than 10000 nM.

And the IC50 [3]?
The IC50 was greater than 10000 nM.

What does the source list for C[C@@H]1CN(c2ccc(C(=O)Nc3ccc(Cl)c(-c4cnc5ccccc5n4)c3)c(Cl)c2)C[C@H](C)N1C [Example 204, N-(3-(quinoxalin-2-yl)-4-chlorophenyl)-2-chloro-4-((3S,5R)-3,4,5-trimethylpiperazin-1-yl)benzamide]?
IC50 ([1]; Mus musculus, C3H 10T1/2, 24 h): 9.6 nM; IC50 [2, 4]: 201 nM; IC50 [3, 4]: 49 nM

With Cc1csc(-c2cnc(-c3cc(NC(=O)c4ccc(N5C[C@@H](C)N(C)[C@@H](C)C5)cc4C)ccc3Cl)[nH]2)c1 [Example 135, N-(3-(5-(4-methylthiophen-2-yl)-1H-imidazol-2-yl)-4-chlorophenyl)-2-methyl-4-((3S,5R)-3,4,5-trimethylpiperazin-1-yl)benzamide] as the compound, how does the IC50 ([1]; Mus musculus, C3H 10T1/2, 24 h) read?
Its IC50 is 1.2 nM.

And the IC50 [2, 4]?
The IC50 was 67 nM.

What about the IC50 [3, 4] of the same compound?
Its IC50 is 1.5 nM.

Which IC50 ([1]; Mus musculus, C3H 10T1/2, 24 h) does the source give for C[C@@H]1CN(c2ccc(C(=O)Nc3ccc(Cl)c(-c4ncc(-c5ccsc5)[nH]4)c3)c(Cl)c2)C[C@H](C)N1C [Example 140, N-(3-(5-(thiophen-3-yl)-1H-imidazol-2-yl)-4-chlorophenyl)-2-chloro-4-((3S,5R)-3,4,5-trimethylpiperazin-1-yl)benzamide] here?
The IC50 was 0.21 nM.

What about the IC50 [2, 4] of the same compound?
Its IC50 is 4.8 nM.

And the IC50 [3, 4]?
Its IC50 is 0.2 nM.

Which results are given for Cc1ccc2nc(-c3cc(NC(=O)c4ccc(N5C[C@@H](C)N(C)[C@@H](C)C5)cc4Cl)ccc3Cl)[nH]c2c1 [Example 111, N-(3-(6-methyl-1H-benzo[d]imidazol-2-yl)-4-chlorophenyl)-2-chloro-4-((3S,5R)-3,4,5-trimethylpiperazin-1-yl)benzamide]?
IC50 ([1]; Mus musculus, C3H 10T1/2, 24 h): 2.2 nM; IC50 [2, 4]: 68 nM; IC50 [3, 4]: 0.94 nM

How did the IC50 ([1]; Mus musculus, C3H 10T1/2, 24 h) turn out when C[C@@H]1CN(c2ccc(C(=O)Nc3ccc(Cl)c(-c4ncc(C5CC5)[nH]4)c3)c(C(F)(F)F)c2)C[C@H](C)N1C [Example 178, N-(3-(5-cyclopropyl-1H-imidazol-2-yl)-4-chlorophenyl)-2-(trifluoro-methyl)-4-((3S,5R)-3,4,5-trimethylpiperazin-1-yl)benzamide] was run?
The IC50 was 1 nM.

And the IC50 [2, 4]?
The IC50 was 26 nM.

And the IC50 [3, 4]?
The IC50 was 0.3 nM.

What does the source list for C[C@@H]1CN(c2ccc(C(=O)Nc3ccc(Cl)c(-c4nc5ccccc5[nH]4)c3)cn2)C[C@H](C)O1 [Example 35, N-(3-(1H-benzo[d]imidazol-2-yl)-4-chlorophenyl)-6-((2S,6R)-2,6-dimethylmorpholino)nicotinamide]?
IC50 ([1]; Mus musculus, C3H 10T1/2, 24 h): 7.8 nM; IC50 [2, 4]: 56 nM; IC50 [3, 4]: 10 nM

With Cc1cc(N2C[C@@H](C)N(C)[C@@H](C)C2)ccc1C(=O)Nc1ccc(Cl)c(-c2ncc(C3CCCC3)[nH]2)c1 [Example 183, N-(3-(5-cyclopentyl-1H-imidazol-2-yl)-4-chlorophenyl)-2-methyl-4-((3S,5R)-3,4,5-trimethylpiperazin-1-yl)benzamide] as the compound, how does the IC50 ([1]; Mus musculus, C3H 10T1/2, 24 h) read?
The IC50 was 6.6 nM.

What about the IC50 [2, 4] of the same compound?
Its IC50 is 90 nM.

What about the IC50 [3, 4] of the same compound?
Its IC50 is 22 nM.

What does the source list for “N-(3-(1H-benzo[d]imidazol-2-yl)-4-chlorophenyl)-2-cyano-4-((3S,5R)-3,4,5-trimethylpiperazin-1-yl)benzamide Dihydrochloride [Example 134]”?
IC50 ([1]; 24 hours): > 10000 nM; IC50 [2]: > 10000 nM; IC50 [3]: > 10000 nM

How did the IC50 ([1]; 24 hours) turn out when CCCc1cnc(-c2cc(NC(=O)c3ccc(N4C[C@@H](C)N(C)[C@@H](C)C4)cc3Cl)ccc2Cl)[nH]1 [Example 173] was run?
Its IC50 is 15 nM.

And the IC50 [2]?
The IC50 was 165 nM.

What about the IC50 [3] of the same compound?
The IC50 was 60 nM.

With CCN1[C@H](C)CN(c2ccc(C(=O)Nc3ccc(Cl)c(-c4nc5ccc(F)cc5[nH]4)c3)c(Cl)c2)C[C@@H]1C [Example 114, N-(3-(6-fluoro-1H-benzo[d]imidazol-2-yl)-4-chlorophenyl)-2-chloro-4-((3S,5R)-4-ethyl-3,5-dimethylpiperazin-1-yl)benzamide] as the compound, how does the IC50 ([1]; Mus musculus, C3H 10T1/2, 24 h) read?
The IC50 was 0.85 nM.

What about the IC50 [2, 4] of the same compound?
Its IC50 is 77 nM.

And the IC50 [3, 4]?
Its IC50 is 9 nM.

C[C@@H]1CN(c2ccc(C(=O)Nc3ccc(Cl)c(-c4nc5ccccc5[nH]4)c3)c(C(F)(F)F)c2)C[C@H](C)N1C [Example 119, N-(3-(1H-benzo[d]imidazol-2-yl)-4-chlorophenyl)-2-(trifluoromethyl)-4-((3S,5R)-3,4,5-trimethylpiperazin-1-yl)benzamide] was tested. Which IC50 ([1]; Mus musculus, C3H 10T1/2, 24 h) did it give?
Its IC50 is 0.45 nM.

And the IC50 [2, 4]?
Its IC50 is 39 nM.

What about the IC50 [3, 4] of the same compound?
The IC50 was 0.76 nM.

What does the source list for Cc1csc(-c2cnc(-c3cc(NC(=O)c4ccc(N5C[C@@H](C)N(C)[C@@H](C)C5)cc4Cl)ccc3Cl)[nH]2)c1 [Example 136, N-(3-(5-(4-methylthiophen-2-yl)-1H-imidazol-2-yl)-4-chlorophenyl)-2-chloro-4-((3S,5R)-3,4,5-trimethylpiperazin-1-yl)benzamide]?
IC50 ([1]; Mus musculus, C3H 10T1/2, 24 h): 0.97 nM; IC50 [2, 4]: 9.2 nM; IC50 [3, 4]: 4 nM

C[C@@H]1CN(c2ccc(C(=O)Nc3ccc(Cl)c(-c4ccccn4)c3)c(Cl)c2)C[C@H](C)N1C [Example 208, N-(3-(pyridin-2-yl)-4-chlorophenyl)-2-chloro-4-((3S,5R)-3,4,5-trimethylpiperazin-1-yl)benzamide] was tested. Which IC50 ([1]; Mus musculus, C3H 10T1/2, 24 h) did it give?
The IC50 was 3.7 nM.

What about the IC50 [2, 4] of the same compound?
The IC50 was 52 nM.

And the IC50 [3, 4]?
The IC50 was 1.3 nM.

What does the source list for C[C@@H]1CN(c2ccc(C(=O)Nc3ccc(Cl)c(-c4nc5ccccc5[nH]4)c3)c(Cl)c2)C[C@H](C)N1C [Example 132, N-(3-(1H-benzo[d]imidazol-2-yl)-4-chlorophenyl)-2-chloro-4-((3S,5R)-3,4,5-trimethylpiperazin-1-yl)benzamide Dihydrochloride]?
IC50 ([1]; 24 hours, Dihydrochloride): 0.74 nM; IC50 ([2]; Dihydrochloride): 28 nM; IC50 ([3]; Dihydrochloride): 0.53 nM
